Key:
[1] = tested on: RAD51 protein in HH cutaneous T-cell lymphoma cell line; assay: RAD51 protein downregulation in HH cell line (Western blot); type: cell-based; settings: 24 hours
Description: (§1) Western Blot Analysis: Cell lines [al NHL except for Jurkat (T-cll leukemia) and K562 (CML)] were treated with PCI-24781 for the designated times, lysed and total protein was quantitated and western blot analysis performed. RAD51 and Actin antibodies were from Santa Cruz.

[2] = tested on: RAD51 foci in irradiated HCT-116 cells; assay: RAD51 nuclear foci following γ-irradiation; type: cell-based; settings: pretreatment for 24 hours
Description: (§2) To explore this further, we analyzed levels of RAD51, an essential protein in HR, by Western blotting and immunofluorescence. Following exposure of HCT116 cells to doses of the test compound ranging from 0.2 μM to 2.0 μM, RAD51 levels decreased to 20% of control by 24 hr, but remained unchanged at 6 hr. […] Finally, RAD51 nuclear foci were visualized following γ-irradiation.
Monolayer cultures of different cells are grown in Dulbecco's MEM medium supplemented with 10% fetal bovine serum and antibiotics. The cells are detached from culture flasks by gentle trypsinization, pelleted and resuspended in phosphate buffered saline (PBS; 136 mM NaCl, 2 mM KCG, 10.6 mM NaHPO4, 1.5 mM KH2PO4 [pH 7.3]) prewarmed at 37° C. (Haaf, et al., 1995, Proc. Natl. Acad. Sci. USA 92: 2298-2302). Cultured cells are washed and resuspended in PBS. The density of somatic cells is adjusted to about 10^5 cells per ml in PBS. Aliquots (0.5 ml) of the cell suspension are centrifuged onto clean glass slides at 800 rpm for 4 min, in a Cytospin (Shandon, Pittsburg). Immediately after cytocentrifugation, the slides are fixed in −20° C. methanol for 30 min and then immersed in ice-cold acetone for a few seconds to permealize the cells for antibody staining. […]

[3] = tested on: DLCL2 Non-Hodgkins cell line; assay: Combination with doxorubicin in DLCL2; type: cell-based; settings: administered simultaneously
[4] = tested on: RAD51 transcript in HCT116 cells; assay: RAD51 transcript levels by real time PCR in HCT116 cells; type: cell-based; settings: by 24 hours, HCT-116 in vitro
[5] = tested on: RAD51 protein in NHL cell lines; assay: RAD51 protein downregulation in Non-Hodgkins lymphoma cell lines (Western blot); type: cell-based; settings: 24 hours, most of the cell lines tested
Description: as §1

HH cell line = assay: Combination with doxorubicin in HH; type: cell-based; settings: administered simultaneously
[6] = tested on: RAD51 mRNA in HH cell line; assay: RAD51 mRNA by Taqman RT-PCR in HH cell line; type: cell-based; settings: 24 hours
Description: (§3) Tagman Gene Expression Assays: 10 lymphoma cell lines were treated with PCI-24781 for various times and total RNA was isolated and quantitated. Taqman assays were set up using the Taqman master mix (Applied Biosystems) and 50 ng of total RNA as template. Gene expression assay probe sets for RAD51 was purchased from Applied Biosystems.
(§4) Cell lines were treated with 3-((dimethylamino)methyl)-N-(2-(4-(hydroxycarbamoyl)phenoxy)ethyl)benzofuran-2-carboxamide for 24 hours, and RAD51 mRNA was analyzed by Taqman RT-PCR.

lymphoma cell lines = assay: Apoptosis by Annexin V-FITC flow cytometry in lymphoma cell lines; type: cell-based
Description: (§5) 3-((dimethylamino)methyl)-N-(2-(4-(hydroxycarbamoyl)phenoxy)ethyl)benzofuran-2-carboxamide induced apoptosis in lymphoma cell lines after a 48 hour incubation measured by Annexin V-FITC flow cytometry. […] Thus, both the initial level of RAD51 in tumors as well as the fold decrease after treatment are predictive for 3-((dimethylamino)methyl)-N-(2-(4-(hydroxycarbamoyl)phenoxy)ethyl)benzofuran-2-carboxamide activity, and in some embodiments is used as biomarkers in clinical studies to identify patients most likely to respond to 3-((dimethylamino)methyl)-N-(2-(4-(hydroxycarbamoyl)phenoxy)ethyl)benzofuran-2-carboxamide.

[7] = tested on: DHL-4 Non-Hodgkins cell line; assay: Combination with doxorubicin in DHL-4; type: cell-based; settings: administered simultaneously
[8] = tested on: RAD51 mRNA in lymphoma cell lines; assay: RAD51 mRNA by Taqman RT-PCR in lymphoma cell lines; type: cell-based
Description: as §3, §4

RAD51 in HCT116 cells = assay: RAD51 protein levels by Western blotting in HCT116 cells; type: cell-based; settings: by 24 hours, HCT-116 in vitro
Description: as §2
For determination of protein levels by Western blot, cellular extracts are prepared as follows. Cells are harvested by scraping; washed with PBS and pelleted by centrifugation. Cell pellets (from 100 mm plate) are resuspended with 200 μl B3 buffer containing protease inhibitors shaken at 4° C. for 10 min and centrifuge at 12,000 rpm at 4° C. in Tomy microcentrifuge for 10 minutes. To make 1 liter of B3 buffer, add 1 ml of NP-40, 50 ml of 5 M NaCl, 10 ml of […], 50 ml of 1 M Tris HCl at pH7.5 to 889 ml dH2O. The day of cell harvest protease inhibitors are added to B3 buffer (aprotinin, leupeptin and pepstatin to a final concentration of 2 μg/ml, 5 μg/ml and 0.7 μg/ml, respectively). […] Sample protein concentrations are determined by the Bradford Assay (BioRad; Richmond, Calif.). […]
Western Blot Analysis: Cell lines [al NHL except for Jurkat (T-cll leukemia) and K562 (CML)] were treated with PCI-24781 for the designated times, lysed and total protein was quantitated and western blot analysis performed. […]

[9] = tested on: RAD51 in HCT-116 mouse xenografts; assay: RAD51 levels in HCT-116 xenograft tumors; settings: HCT-116, in vivo (not shown)
Description: Also shown are RAD51 levels and actin levels after extraction of tumor from HCT-116 mouse xenografts with different dosing regimens. 1× animals received a single oral dose 4 hours before the end of the study; 2× animals received one oral dose 28 hours before the end of the study and received a second dose 6 hours later; 3× animals were dosed as in the 2× but also received a third dose the following morning, 24 hours after the first dose was administered and 4 hours before the end of the study. Fold changes in protein levels were quantitated by using Odyssey software and were normalized to the levels of the actin loading control.
3-((dimethylamino)methyl)-N-(2-(4-(hydroxycarbamoyl)phenoxy)ethyl)benzofuran-2-carboxamide pretreatment for 24 hours also lead to complete loss of RAD51 foci in the nuclei of irradiated HCT-116 cells (not shown; see Adimoolam et al. 2007, PNAS epub Nov. 27 the experiment, which is herein incorporated by reference).

HH lymphoma line = assay: Apoptosis by Annexin V-FITC flow cytometry in HH line; type: cell-based
Description: as §5

CN(C)Cc1c(C(=O)NCCOc2ccc(C(=O)NO)cc2)oc2ccccc12 [3-((dimethylamino)methyl)-N-(2-(4-(hydroxycarbamoyl)phenoxy)ethyl)benzofuran-2-carboxamide]
effect on RAD51 protein levels [1]: least effect
RAD51 foci in the nuclei [2]: complete loss
combination effect with doxorubicin [3]: synergistic effects
RAD51 mRNA levels [4]: downregulating RAD51
RAD51 protein levels [5]: downregulated RAD51 protein levels in a dose-dependent manner
RAD51 protein levels ([5]; listed as 3-((dimethylamino)methyl) -N-(2-(4-(hydroxycarbamoyl)phenoxy)ethyl)benzofuran-2-): downregulated RAD51 protein levels
combination effect with doxorubicin (HH cell line): less than additive
RAD51 mRNA change [6]: no decrease
apoptotic cell death (lymphoma cell lines; 48 hour incubation, all the lines except HH): dose-dependent increase in apoptotic cell death
apoptosis (lymphoma cell lines; at 24 hrs, all the lines): lower levels of apoptosis
apoptosis following drug treatment (lymphoma cell lines; five most sensitive cell lines): > 70%
combination effect with doxorubicin [7]: synergistic effects
downregulation of RAD51 mRNA expression ([8]; 24 hours, most of the cell lines): more than 2 fold
decrease in RAD51 mRNA ([8]; the five cell lines with >70% apoptosis): > 4 fold
RAD51 protein levels (RAD51 in HCT116 cells): downregulating RAD51
RAD51 levels in vivo [9]: downregulating RAD51
apoptosis (HH lymphoma line): least % apoptosis
